This note sets out measurements from US11584710B2, “Compounds for treating infections” (HORITZONTS TECNOLOGICS HUNGARY KORLÁTOLT FELELOSSÉGU …, priority 2017, dated 2023).

What all share (format): cell-based
The test system of one series is P. aeruginosa. The series is described as follows: Kirby-Bauer disk diffusion susceptibility test. To be noted: 300 μg/disc.
For the next series, the system named is A. baumannii. The experiment in a line: Kirby-Bauer disk diffusion susceptibility test. To be noted: 300 μg/disc. In general terms: A growth-free zone around the sample is the usual read-out of agar diffusion tests.
For a further series, the system named is HIV. The experiment in a line: Anti-HIV assay, recombinant virus with Renilla reporter gene in MT-2 cells. As to conditions: Human immunodeficiency virus 1, MT2, read-out: IC50 VIH MT-2 μM. The text has this: Assessment of in vitro antiviral activity is usually performed to estimate parameters of antiviral potency and efficacy represented by the percentage of inhibition of HIV activity or IC50. The assay utilized is based on the use of recombinant viruses in which the nef gene, […] for in vitro HIV replication, has been replaced by a Renilla reporter gene so that viral replication can be quantified directly (García-Perez J et al, J Med Virol. 2007 February; 79(2):127-37). The assay was performed infecting MT-2 cells or PHA-activated PBMCs/IL-2 with viral supernatants obtained previously. The study was development in AIDS Immunopathology Unit, Nacional Center of Microbiology, Institute of Health Carlos 111, Majadahonda, Madrid, Spain.
All data are expressed as percentage relative to a control with DMSO at the same concentration. Antiviral activity and toxicity curves were performed to the compound at different concentrations.

Series [1] in a line: Cellular viability, CellTiter Glo. As to conditions: human; MT-2 cells; concentration required to kill 50% of cells; read-out: CC50 VIH MT-2 μM. Here is the method:
All assays for assessing anti-HIV activity were taken in parallel to determine cellular viability of the culture in the presence or absence of different concentrations of the isolated molecule. It was followed exactly the same methodology as in the anti-HIV assay except with the addition of complete DMEM medium instead of supernatant viral, in the same proportion, and the detection of the viability was performed with the viability detection kit CellTiter Glo (Promega), following manufacturer instructions. Viability is directly proportional to the luciferase activity obtained. All data are expressed as percentage relative to a control with DMSO at the same concentration. Antiviral activity and toxicity curves were performed to the compound at different concentrations.
Background: Cellular ATP, detected with luciferase, serves as a proxy for viable cell number.

The next series concerns A. fumigatus. The experiment in a line: Antifungal disk diffusion susceptibility test (CLSI M44). To be noted: Aspergillus fumigatus, A. fumigatus. As for the experimental part:
(§1) Filamentous fungi and yeasts strains, from clinical origin, were supplied by Microbiology Service from The Princess Hospital, Madrid. They are detailed in Table IX.
(§2) Filamentous fungi and yeast cells suspensions in distilled water was prepared from a culture of 24-48 h, depending on species, in Sabouraud agar. Each suspension was adjusted to a fixed size inoculum of 1-5×10^8 CFU/ml with a spectrophotometer (Ferraro, MJ National Committee for Clinical Laboratory Standards. 2000).
(§3) Antifungal susceptibility tests were developed following the standardized methodology detailed in document CLSI: M44-4: Method for Antifungal Disk diffusion susceptibility testing of yeasts consisting of disk diffusion on agar Muller-Hinton (supplemented with 2% glucose).

The test system of the next series is C. tropicalis. Described as above. To be noted: Candida tropicalis, C. tropicalis. As for the experimental part: as §1, §2, §3
The next series deals with C. guillermondii. The series is described as above. To be noted: C. guillermondii. As for the experimental part: as §1, §2, §3
The subject of the next series is A. niger. The description is as above. To be noted: Aspergillus niger, A. niger. Here is the method:
as §1, §2, §3

Another series relates to C. parapsilosis. The series is described as above. As to conditions: Lodderomyces parapsilosis, C. parapsilosis. As for the experimental part: as §1, §2, §3
A further series deals with C. lusitaniae. Described as above. As to conditions: Clavispora lusitaniae, C. lusitaniae. As for the experimental part:
as §1, §2, §3

The next series deals with A. flavus. Described as above. To be noted: Aspergillus flavus, A. flavus. Here is the method:
as §1, §2, §3

Another series concerns A. terreus. Described as above. To be noted: Aspergillus terreus, A. terreus. As for the experimental part: as §1, §2, §3
For the next series, the system named is S. cerevisiae. The description is as above. To be noted: Saccharomyces cerevisiae, S. cerevisiae. Here is the method:
as §1, §2, §3

The test system of the next series is C. albicans. The series is described as above. To be noted: Candida albicans, C. albicans. Here is the method: as §1, §2, §3

By IC50 is commonly meant the concentration needed to halve the response being measured. For orientation: CC50 means the concentration at which the toxic effect on the cells reaches its halfway point. In general, zone of inhibition refers to the size of the clear area around the sample on an inoculated plate. The low end stands for little suppression of growth, the high end for wide suppression of growth. Turning to `NNC(=O)C(=O)NNc1ccccc1` [MSG-119], the “Activity detected (mm)” value in the series with P. aeruginosa came out at 15 mm; in the series with A. baumannii, 20 mm. In addition, in the series on HIV, the concentration for half-maximal inhibition (IC50) was found to be 7.11 µM. The CC50 in series [1] was above 100 µM. The zone of inhibition at 150 µg/disc with A. fumigatus (150 μg/disc) is 22 mm; in the series with C. tropicalis (150 μg/disc), 20 mm; in the series with C. guillermondii (150 μg/disc) it was 12 mm; with A. niger (150 μg/disc), 24 mm; in the series with C. parapsilosis (150 μg/disc), 15 mm; with C. lusitaniae (150 μg/disc) it was below 10 mm. Further, the zone of inhibition at 150 µg/disc in the series with A. flavus (150 μg/disc) turned out to be 18 mm; with A. terreus (150 μg/disc), 20 mm; in the series with S. cerevisiae (150 μg/disc), 26 mm; in the series on C. albicans (150 μg/disc), 21 mm. In addition, the zone of inhibition at 500 µg/disc is above 40 mm with A. fumigatus (500 μg/disc); above 40 mm in the series with C. tropicalis (500 μg/disc); above 40 mm with C. guillermondii (500 μg/disc); above 40 mm with A. niger (500 μg/disc); above 40 mm with C. parapsilosis (500 μg/disc); 20 mm in the series with C. lusitaniae (500 μg/disc). The zone of inhibition at 500 µg/disc with A. flavus (500 μg/disc) is above 40 mm; in the series on A. terreus (500 μg/disc) it was above 40 mm; in the series on S. cerevisiae (500 μg/disc), 35 mm; in the series with C. albicans (500 μg/disc) it was 24 mm.
